Results published in ChEMBL document CHEMBL4706692, “CC-90009: A Cereblon E3 Ligase Modulating Drug That Promotes Selective Degradation of GSPT1 for the Treatment of Acute Myeloid Leukemia” (J Med Chem, 2021).
Activity calls are given as the source filed them. The rule behind the calls is not given here.

Key:
THLE-2 = test: Cytotoxicity against human THLE-2 cells assessed as cell viability incubated for 72 hrs by cell titer glo assay; assay type: cell-based; settings: THLE-2, 72 h
KG-1 = test: Antiproliferative activity against human KG-1 cells assessed as reduction in cell viability incubated for 72 hrs by cell titer glo assay; assay type: functional, cell-based; settings: KG-1, 72 h
[1] = Selectivity index, ratio of IC50 for cytotoxicity against human THLE-2 cells to IC50 for antiproliferative activity against human KG-1 cells
CYP2C9 = CYP2C9 (Homo sapiens, UniProt P11712); test: Inhibition of CYP2C9 (unknown origin) at 2.5 uM relative to control; assay type: ADME
[2] = target: T1, Protein cereblon/Eukaryotic peptide chain release factor GTP-binding subunit ERF3A (Homo sapiens) (UniProt Q96SW2+P15170); test: Protac activity at CRBN/GSPT1 in human KG-1 cells assessed as GSPT1 degradation by measuring accumulation of CHOP at 200 uM incubated for 4 hrs by western blot analysis; assay type: cell-based
T1 sequence (P15170 whole entry, looked up): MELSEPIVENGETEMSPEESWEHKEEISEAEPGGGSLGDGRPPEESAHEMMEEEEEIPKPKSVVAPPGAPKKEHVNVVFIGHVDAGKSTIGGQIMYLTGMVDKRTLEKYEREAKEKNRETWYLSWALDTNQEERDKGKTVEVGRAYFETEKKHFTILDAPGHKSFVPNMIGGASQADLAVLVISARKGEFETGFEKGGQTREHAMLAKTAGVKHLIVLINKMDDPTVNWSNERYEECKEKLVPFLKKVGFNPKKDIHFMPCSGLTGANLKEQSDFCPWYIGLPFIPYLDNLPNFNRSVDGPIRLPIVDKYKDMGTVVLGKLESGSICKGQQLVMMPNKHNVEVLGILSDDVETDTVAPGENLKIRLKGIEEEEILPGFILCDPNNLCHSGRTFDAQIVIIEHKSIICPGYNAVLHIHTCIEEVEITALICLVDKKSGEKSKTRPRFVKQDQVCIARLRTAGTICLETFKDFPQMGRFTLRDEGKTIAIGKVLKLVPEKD
T1 sequence (Q96SW2 whole entry, looked up): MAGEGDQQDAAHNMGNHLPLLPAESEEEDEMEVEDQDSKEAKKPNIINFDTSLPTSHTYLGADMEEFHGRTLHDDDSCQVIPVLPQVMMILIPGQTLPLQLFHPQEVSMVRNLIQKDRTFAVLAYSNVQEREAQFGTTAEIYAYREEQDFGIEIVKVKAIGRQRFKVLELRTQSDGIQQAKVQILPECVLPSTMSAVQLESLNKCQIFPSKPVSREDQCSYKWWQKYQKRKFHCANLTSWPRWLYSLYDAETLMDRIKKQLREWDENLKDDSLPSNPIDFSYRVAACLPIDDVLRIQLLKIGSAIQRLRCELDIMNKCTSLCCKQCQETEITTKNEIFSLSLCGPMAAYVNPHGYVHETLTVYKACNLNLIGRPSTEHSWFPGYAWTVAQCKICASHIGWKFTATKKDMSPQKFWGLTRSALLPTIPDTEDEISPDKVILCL

[3] = Total clearance in iv dosed acute myeloid leukemia patient; assay type: ADME, organism-based; settings: human, in vivo
[4] = target: Solute carrier family 22 member 6 (Homo sapiens, UniProt Q4U2R8); test: Inhibition of OAT1 (unknown origin) at upto 3 uM
Chain of Solute carrier family 22 member 6 (Q4U2R8 whole entry): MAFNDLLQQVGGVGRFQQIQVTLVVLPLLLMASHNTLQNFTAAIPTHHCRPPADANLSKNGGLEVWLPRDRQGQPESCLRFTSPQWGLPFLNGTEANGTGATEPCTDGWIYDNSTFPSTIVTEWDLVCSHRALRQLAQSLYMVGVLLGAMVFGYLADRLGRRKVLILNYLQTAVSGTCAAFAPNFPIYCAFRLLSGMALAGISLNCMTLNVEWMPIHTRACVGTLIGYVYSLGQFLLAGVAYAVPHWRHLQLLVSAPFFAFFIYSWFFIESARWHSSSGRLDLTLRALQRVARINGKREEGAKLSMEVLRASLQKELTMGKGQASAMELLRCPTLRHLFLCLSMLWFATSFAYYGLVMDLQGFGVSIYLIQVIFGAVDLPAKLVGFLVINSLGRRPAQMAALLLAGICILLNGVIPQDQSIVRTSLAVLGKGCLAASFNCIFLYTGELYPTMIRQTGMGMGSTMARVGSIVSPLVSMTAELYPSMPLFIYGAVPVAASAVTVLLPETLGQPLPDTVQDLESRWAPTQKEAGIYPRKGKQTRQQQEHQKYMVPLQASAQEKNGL

[5] = target: Protein cereblon/Zinc finger protein Aiolos (Homo sapiens, UniProt Q96SW2+Q9UKT9); test: Protac activity at CRBN/IKZF3 (unknown origin) assessed as IKZF3 degradation; assay type: protein assay
Chain of Protein cereblon/Zinc finger protein Aiolos (Q96SW2 whole entry): as the sequence (Q96SW2 whole entry, looked up) above
Chain of Protein cereblon/Zinc finger protein Aiolos (Q9UKT9 whole entry): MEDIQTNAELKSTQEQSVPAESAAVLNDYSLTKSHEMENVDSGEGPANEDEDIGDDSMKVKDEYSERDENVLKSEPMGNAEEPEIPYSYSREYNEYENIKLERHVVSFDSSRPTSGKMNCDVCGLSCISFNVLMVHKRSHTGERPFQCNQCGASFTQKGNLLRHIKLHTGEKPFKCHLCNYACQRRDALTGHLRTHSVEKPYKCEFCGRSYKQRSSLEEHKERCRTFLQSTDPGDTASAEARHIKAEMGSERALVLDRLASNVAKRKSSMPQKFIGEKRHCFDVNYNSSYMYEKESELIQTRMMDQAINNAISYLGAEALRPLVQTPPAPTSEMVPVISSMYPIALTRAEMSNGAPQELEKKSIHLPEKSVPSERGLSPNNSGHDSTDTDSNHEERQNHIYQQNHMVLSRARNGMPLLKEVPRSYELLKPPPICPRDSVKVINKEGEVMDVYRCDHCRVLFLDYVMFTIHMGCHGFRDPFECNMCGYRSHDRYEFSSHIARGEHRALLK

[6] = target: Multidrug and toxin extrusion protein 2 (Homo sapiens, UniProt Q86VL8); test: Inhibition of MATE2 (unknown origin) at upto 3 uM
Cereblon/Ikaros = Cereblon/Ikaros (Homo sapiens, UniProt Q13422+Q96SW2); test: Protac activity at CRBN/IKZF1 (unknown origin) assessed as IKZF1 degradation; assay type: protein-complex assay
Chain of Cereblon/Ikaros (Q96SW2 whole entry): as the sequence (Q96SW2 whole entry, looked up) above
Chain of Cereblon/Ikaros (Q13422 whole entry): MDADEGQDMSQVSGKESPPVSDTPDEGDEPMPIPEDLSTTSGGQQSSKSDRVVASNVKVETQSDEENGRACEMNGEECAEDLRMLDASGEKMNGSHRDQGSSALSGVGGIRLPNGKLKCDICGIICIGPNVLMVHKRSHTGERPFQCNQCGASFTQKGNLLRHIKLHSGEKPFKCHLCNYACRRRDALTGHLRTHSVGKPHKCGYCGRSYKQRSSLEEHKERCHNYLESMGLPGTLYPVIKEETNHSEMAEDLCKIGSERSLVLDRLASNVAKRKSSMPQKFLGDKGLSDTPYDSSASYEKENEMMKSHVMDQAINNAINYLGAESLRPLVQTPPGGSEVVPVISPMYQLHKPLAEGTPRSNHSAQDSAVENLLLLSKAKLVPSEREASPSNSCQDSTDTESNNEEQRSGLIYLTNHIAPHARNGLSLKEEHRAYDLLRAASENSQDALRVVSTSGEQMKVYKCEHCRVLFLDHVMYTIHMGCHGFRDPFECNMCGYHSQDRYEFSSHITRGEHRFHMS

[7] = target: Solute carrier organic anion transporter family member 1B3 (Homo sapiens, UniProt Q9NPD5); test: Inhibition of OATP1B3 (unknown origin) at upto 3 uM
[8] = target: T1, Protein cereblon/Eukaryotic peptide chain release factor GTP-binding subunit ERF3A (Homo sapiens); test: Protac activity at CRBN/GSPT1 in CD3+ T cells derived from patients assessed as reduction of GSPT1 levels at 2.4 mg, iv administered for 5 days by flow cytometry analysis relative to control; assay type: organism-based; parameters: scale not given: the % may be the effect or the level left; settings: CD3-positive T cell, time 5.0 day
[9] = target: T1, Protein cereblon/Eukaryotic peptide chain release factor GTP-binding subunit ERF3A (Homo sapiens); test: Protac activity at CRBN/GSPT1 in human NB-4 cells assessed as induction of GSPT1 degradation at 0.001 to 1 uM incubated for 4 hrs by western blot analysis; assay type: cell-based; settings: dose 0.001-1 µM
[10] = Volume of distribution in iv dosed acute myeloid leukemia patient; assay type: ADME, organism-based; settings: human, in vivo
[11] = Volume of distribution at steady state in cynomolgus monkey at 1 mg/kg, iv administered as bolus dose; assay type: ADME, organism-based, Macaca fascicularis; settings: in vivo, read-out: Vdss
[12] = target: ATP-binding cassette sub-family C member 2 (Homo sapiens, UniProt Q92887); test: Inhibition of MRP2 (unknown origin) at upto 3 uM
[13] = target: Muscarinic acetylcholine receptor M1 (Homo sapiens) (UniProt P11229); test: Inhibition of human muscarinic M1 receptor at 10 uM relative to control
[14] = target: Voltage-gated inwardly rectifying potassium channel KCNH2 (Homo sapiens, UniProt Q12809); test: Inhibition of human ERG
Chain of Voltage-gated inwardly rectifying potassium channel KCNH2 (Q12809 whole entry): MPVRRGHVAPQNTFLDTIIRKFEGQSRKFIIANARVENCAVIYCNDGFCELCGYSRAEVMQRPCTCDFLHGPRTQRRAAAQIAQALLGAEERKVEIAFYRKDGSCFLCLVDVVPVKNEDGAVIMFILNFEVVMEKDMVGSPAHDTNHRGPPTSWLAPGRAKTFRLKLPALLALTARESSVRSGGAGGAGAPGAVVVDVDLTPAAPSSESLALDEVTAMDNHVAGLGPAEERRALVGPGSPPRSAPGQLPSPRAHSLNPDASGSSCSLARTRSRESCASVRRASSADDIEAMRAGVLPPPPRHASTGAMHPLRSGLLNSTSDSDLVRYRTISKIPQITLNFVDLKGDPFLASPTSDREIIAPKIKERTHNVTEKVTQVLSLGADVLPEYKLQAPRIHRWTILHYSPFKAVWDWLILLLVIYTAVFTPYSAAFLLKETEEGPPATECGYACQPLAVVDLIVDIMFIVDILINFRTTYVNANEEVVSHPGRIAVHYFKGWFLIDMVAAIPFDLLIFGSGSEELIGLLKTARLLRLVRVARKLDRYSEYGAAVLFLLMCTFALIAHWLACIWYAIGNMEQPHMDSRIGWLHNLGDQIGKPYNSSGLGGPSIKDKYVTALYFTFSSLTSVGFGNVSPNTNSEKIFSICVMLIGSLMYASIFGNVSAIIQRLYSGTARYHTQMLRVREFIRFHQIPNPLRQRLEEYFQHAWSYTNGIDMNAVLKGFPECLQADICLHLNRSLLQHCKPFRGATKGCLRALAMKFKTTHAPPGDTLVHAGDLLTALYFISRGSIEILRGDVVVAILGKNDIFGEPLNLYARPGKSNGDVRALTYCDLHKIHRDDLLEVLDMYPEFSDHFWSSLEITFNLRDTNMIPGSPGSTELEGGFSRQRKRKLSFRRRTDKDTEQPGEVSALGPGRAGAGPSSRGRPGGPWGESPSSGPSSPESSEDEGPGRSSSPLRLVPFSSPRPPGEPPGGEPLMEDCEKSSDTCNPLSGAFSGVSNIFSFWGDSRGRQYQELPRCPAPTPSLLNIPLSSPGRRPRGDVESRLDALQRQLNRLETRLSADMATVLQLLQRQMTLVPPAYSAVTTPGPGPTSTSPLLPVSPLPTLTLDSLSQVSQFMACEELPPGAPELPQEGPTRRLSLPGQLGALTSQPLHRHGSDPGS

[15] = MRT in CD1 mouse at 2 mg/kg, iv administered as bolus dose; assay type: ADME, organism-based; settings: in vivo
[16] = target: T1, Protein cereblon/Eukaryotic peptide chain release factor GTP-binding subunit ERF3A (Homo sapiens); test: Protac activity at CRBN/GSPT1 in CD3+ T cells derived from patients assessed as reduction of GSPT1 levels in T cells administered intravenously for 5 days by flow cytometry analysis; settings: CD3-positive T cell, time 5.0 day
HL-60 [17] = test: Antitumor activity against human HL-60 cells in xenografted model assessed as reduction in CD33+/CD45+ in bone marrow at 5 mg/kg, BID administered for 5 consecutive days relative to control; assay type: functional; settings: HL-60, 120 h, time 5 day
[18] = Volume of distribution at steady state in CD1 mouse at 2 mg/kg, iv administered as bolus dose; assay type: ADME, organism-based; settings: in vivo, read-out: Vdss
Bone marrow cell = test: Antiproliferative activity in bone marrow cells derived from AML patients assessed as cell growth inhibition; assay type: functional, cell-based; settings: Homo sapiens
[19] = target: Solute carrier family 22 member 2 (Homo sapiens, UniProt O15244); test: Inhibition of OCT2 (unknown origin) at upto 3 uM
[20] = target: Muscarinic acetylcholine receptor M2 (Homo sapiens) (UniProt P08172); test: Inhibition of human muscarinic M2 receptor at 10 uM relative to control
Chain of Muscarinic acetylcholine receptor M2 (Homo sapiens) (P08172 whole entry): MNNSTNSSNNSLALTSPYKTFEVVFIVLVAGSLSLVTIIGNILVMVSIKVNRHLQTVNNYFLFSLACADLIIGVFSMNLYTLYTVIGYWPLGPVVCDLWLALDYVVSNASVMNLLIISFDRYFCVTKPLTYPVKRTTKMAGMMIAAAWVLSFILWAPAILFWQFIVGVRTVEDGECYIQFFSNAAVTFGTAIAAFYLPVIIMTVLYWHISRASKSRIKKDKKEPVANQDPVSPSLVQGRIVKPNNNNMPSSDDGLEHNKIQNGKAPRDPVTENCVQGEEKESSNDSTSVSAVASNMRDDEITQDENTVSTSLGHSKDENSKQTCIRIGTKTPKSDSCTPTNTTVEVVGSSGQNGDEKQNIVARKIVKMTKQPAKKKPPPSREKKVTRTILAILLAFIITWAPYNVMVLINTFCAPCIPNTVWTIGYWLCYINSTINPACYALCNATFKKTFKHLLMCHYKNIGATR

Cytochrome P450 2C19 = Cytochrome P450 2C19 (Homo sapiens, UniProt P33261); test: Inhibition of CYP2C19 (unknown origin); assay type: ADME
[21] = Clearance in CD-IGS rat at 2 mg/kg, iv administered as bolus dose; assay type: ADME, organism-based; settings: in vivo
[22] = target: T1, Protein cereblon/Eukaryotic peptide chain release factor GTP-binding subunit ERF3A (Homo sapiens); test: Protac activity at CRBN/GSPT1 in human DF-15 cells assessed as maximum GSPT1 degradation incubated for 20 hrs by hunter detection reagent based luminescence assay relative to control; assay type: cell-based; settings: DF15
[23] = target: T1, Protein cereblon/Eukaryotic peptide chain release factor GTP-binding subunit ERF3A (Homo sapiens); test: Protac activity at CRBN/GSPT1 in human DF15 cells assessed as maximum GSPT1 degradation incubated for 4 hrs by hunter detection reagent based luminescence assay relative to control; assay type: cell-based
[24] = target: T1, Protein cereblon/Eukaryotic peptide chain release factor GTP-binding subunit ERF3A (Homo sapiens); test: Protac activity at CRBN/GSPT1 in human DF15 cells assessed as in depth GSPT1 degradation incubated for 4 hrs by hunter detection reagent based luminescence assay; assay type: cell-based
[25] = target: T1, Protein cereblon/Eukaryotic peptide chain release factor GTP-binding subunit ERF3A (Homo sapiens); test: Protac activity at CRBN/GSPT1 in human DF-15 cells assessed as in depth GSPT1 degradation incubated for 20 hrs by hunter detection reagent based luminescence assay relative to control; assay type: cell-based; settings: DF15
[26] = target: T1, Protein cereblon/Eukaryotic peptide chain release factor GTP-binding subunit ERF3A (Homo sapiens); test: Protac activity at CRBN/GSPT1 in human DF-15 cells assessed as GSPT1 degradation at 0.2 to 3 uM incubated for 4 to 6 hrs by Incell-hunter detection reagent based luminescence assay relative to control; assay type: cell-based; settings: DF15, dose 0.2-3 µM, time 4-6 hrs
[27] = Clearance in CD1 mouse at 2 mg/kg, iv administered as bolus dose; assay type: ADME, organism-based; settings: in vivo
[28] = Volume of distribution at steady state in CD-IGS rat at 2 mg/kg, iv administered as bolus dose; assay type: ADME, organism-based; settings: in vivo, read-out: Vdss
[29] = Clearance in cynomolgus monkey at 1 mg/kg, iv administered as bolus dose; assay type: ADME, organism-based, Macaca fascicularis; settings: in vivo
[30] = MRT in CD-IGS rat at 2 mg/kg, iv administered as bolus dose; assay type: ADME, organism-based; settings: in vivo
Homo sapiens = species on record: Homo sapiens; test: Inhibition of P-gp (unknown origin) at upto 3 uM; settings: dose microM <=3
HL-60 [31] = test: Antitumor activity against human HL-60 cells in xenografted model assessed as reduction in CD33+/CD45+ in bone marrow at 2.5 mg/kg, BID administered for 10 consecutive days relative to control; assay type: functional; settings: HL-60, 240 h, time 10 day
[32] = target: Solute carrier organic anion transporter family member 1B1 (Homo sapiens, UniProt Q9Y6L6); test: Inhibition of OATP1B1 (unknown origin) at upto 3 uM
[33] = target: Organic anion transporter 3 (Homo sapiens, UniProt Q8TCC7); test: Inhibition of OAT3 (unknown origin) at upto 3 uM
[34] = Terminal half life in iv dosed acute myeloid leukemia patient; assay type: ADME, organism-based; settings: human, in vivo, read-out: beta t1/2 (converted)
[35] = target: T1, Protein cereblon/Eukaryotic peptide chain release factor GTP-binding subunit ERF3A (Homo sapiens); test: Protac activity at CRBN/GSPT1 in human KG-1 cells assessed as GSPT1 degradation at 1 uM incubated for 4 hrs in presence of proteasome inhibitor bortezomib by western blot analysis; assay type: cell-based
[36] = target: Broad substrate specificity ATP-binding cassette transporter ABCG2 (Homo sapiens, UniProt Q9UNQ0); test: Inhibition of BCRP (unknown origin) at upto 3 uM
Chain of Broad substrate specificity ATP-binding cassette transporter ABCG2 (Q9UNQ0 whole entry): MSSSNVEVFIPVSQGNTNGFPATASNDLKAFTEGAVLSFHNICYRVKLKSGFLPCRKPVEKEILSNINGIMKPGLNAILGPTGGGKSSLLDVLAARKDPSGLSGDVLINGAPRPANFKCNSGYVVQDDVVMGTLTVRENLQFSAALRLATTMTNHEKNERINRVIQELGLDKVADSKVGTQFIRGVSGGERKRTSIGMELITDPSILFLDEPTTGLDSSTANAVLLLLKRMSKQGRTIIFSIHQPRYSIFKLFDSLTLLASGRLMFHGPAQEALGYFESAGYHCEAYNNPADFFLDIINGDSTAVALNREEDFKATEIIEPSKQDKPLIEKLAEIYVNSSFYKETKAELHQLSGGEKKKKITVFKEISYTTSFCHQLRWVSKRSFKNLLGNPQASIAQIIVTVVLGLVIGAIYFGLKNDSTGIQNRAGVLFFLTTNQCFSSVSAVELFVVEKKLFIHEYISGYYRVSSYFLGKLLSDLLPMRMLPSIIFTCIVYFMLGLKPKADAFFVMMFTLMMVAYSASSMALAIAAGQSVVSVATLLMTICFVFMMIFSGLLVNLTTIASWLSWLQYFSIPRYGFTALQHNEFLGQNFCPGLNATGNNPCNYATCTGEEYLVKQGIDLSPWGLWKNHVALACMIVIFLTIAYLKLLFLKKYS

[37] = target: T1, Protein cereblon/Eukaryotic peptide chain release factor GTP-binding subunit ERF3A (Homo sapiens); test: Protac activity at CRBN/GSPT1 in human KG-1 cells assessed as GSPT1 degradation at 1 uM incubated for 4 hrs in presence of neddylation inhibitor MLN4924 by western blot analysis; assay type: cell-based
[38] = target: T1, Protein cereblon/Eukaryotic peptide chain release factor GTP-binding subunit ERF3A (Homo sapiens); test: Protac activity at CRBN/GSPT1 in human KG-1 cells assessed as GSPT1 degradation by measuring accumulation of ATF3 at 200 uM incubated for 4 hrs by western blot analysis; assay type: cell-based
[39] = target: T1, Protein cereblon/Eukaryotic peptide chain release factor GTP-binding subunit ERF3A (Homo sapiens); test: Protac activity at CRBN/GSPT1 in human KG-1 cells assessed as GSPT1 degradation at 1 uM incubated for 4 hrs by western blot analysis; assay type: cell-based
[40] = target: T1, Protein cereblon/Eukaryotic peptide chain release factor GTP-binding subunit ERF3A (Homo sapiens); test: Protac activity at CRBN/GSPT1 in human KG-1 cells assessed as GSPT1 degradation by measuring accumulation of ATF4 at 200 uM incubated for 4 hrs by western blot analysis; assay type: cell-based
[41] = target: T1, Protein cereblon/Eukaryotic peptide chain release factor GTP-binding subunit ERF3A (Homo sapiens); test: Protac activity at CRBN/GSPT1 in CD3+ T cells derived from patients assessed as reduction of GSPT1 levels in peripheral blood blast administered intravenously for 5 days by flow cytometry analysis; assay type: cell-based; settings: CD3-positive T cell, time 5.0 day
[42] = Toxicity in cynomolgus monkey assessed as effect on cardiovascular system; parameters: species or system Macaca fascicularis; settings: in vivo
[43] = MRT in cynomolgus monkey at 1 mg/kg, iv administered as bolus dose; assay type: ADME, organism-based, Macaca fascicularis; settings: in vivo

O=C1CCC(N2Cc3cc(CNC(=O)Nc4ccccc4)ccc3C2=O)C(=O)N1 (stereo not given)
IC50 (THLE-2): 0.06 µM | IC50 (KG-1): 0.015 µM | Ratio IC50 [1]: 4

O=C1CCC(N2Cc3cc(CNC(=O)C(F)(F)c4ccc(Cl)cc4)ccc3C2=O)C(=O)N1 (stereo not given)
inhibition at 2.5 µM (CYP2C9): 41% | Activity [2]: Active | clearance [3]: 116 mL/min | inhibition (INH) [4]: Not Active | EC50 [5]: > 10 µM | inhibition (INH) [6]: Not Active | EC50 (Cereblon/Ikaros): > 10 µM | inhibition (INH) [7]: Not Active | Activity [8]: 90% | Activity [9]: Active | Vd [10]: 61.7 L | Vd [11]: 1.1 L/kg | inhibition (INH) [12]: Not Active | inhibition [13]: > 50% | IC50 [14]: 5.3 µM | MRT [15]: 0.24 h | Activity [16]: Dose-dependent effect | inhibition in vivo at 5 mg/kg (HL-60 [17]): 54% | Vd [18]: 1 L/kg | EC50 (Bone marrow cell): 0.006 µM | inhibition (INH) [19]: Not Active | inhibition [20]: > 50% | IC50 (Cytochrome P450 2C19): 1.53 µM | clearance [21]: 28.3 mL/min/kg | Emax [22]: 88% | Emax [23]: 51% | Activity [24]: Active | Activity [25]: Active | Activity [26]: 75% | clearance [27]: 67.9 mL/min/kg | Vd [28]: 2.2 L/kg | clearance [29]: 6 mL/min/kg | MRT [30]: 1.3 h | inhibition (Homo sapiens): inactive | inhibition in vivo at 2.5 mg/kg (HL-60 [31]): 71.5% | inhibition (INH) [32]: Not Active | inhibition (INH) [33]: Not Active | half-life [34]: 9.3 h | Activity [35]: inactive | inhibition (INH) [36]: Not Active | Activity [37]: inactive | Activity [38]: Active | Activity [39]: Active | Activity [40]: Active | Activity [41]: Dose-dependent effect | Activity [42]: Non-Toxic | MRT [43]: 4 h

O=C(Cc1ccccc1)NCc1ccc2c(c1)CN(C1CCC(=O)NC1=O)C2=O (stereo not given)
IC50 (THLE-2): 0.231 µM | IC50 (KG-1): 0.037 µM | Ratio IC50 [1]: 6

O=C1CCC(N2Cc3cc(CNC(=O)c4ccccc4)ccc3C2=O)C(=O)N1 (stereo not given)
IC50 (THLE-2): > 10 µM | IC50 (KG-1): > 10 µM
